{"source": "patent US10640524B2", "about": "“Prototype systems of theranostic biomarkers for in vivo molecular management of cancer” (EPOS-IASIS RESEARCH AND DEVELOPMENT, LTD, priority 2015, dated 2020)", "key": {"[1]": {"tested_on": "colon cancer cells (SW480)", "assay": "Antiproliferative effect of A1F-D1F on colon cancer cells", "format": "cell-based", "details": "for effect on cell viability with respect to the control (no drug): SW480, FIG. 3; for cell viability with respect to the control: human, 24 h", "method": "The antiproliferative effect of the following compounds A1F, B1F, C1F and D1F were tested on colon cancer cells (SW480)."}, "[2]": {"tested_on": "LoVo cells", "assay": "MTT colorimetric assay of antiproliferative efficacy", "format": "cell-based", "details": "FIG. 4"}, "[3]": {"tested_on": "SW620 cells", "assay": "Label-free temporal quantitative pharmacoproteomics", "format": "cell-based", "details": "0.04 mM", "method": "The following experiment was performed to uncover new biomarkers of therapeutic response to the anticancer efficacy of the natural product based theranostic systems of the present invention.\nIn this experiment, SW620 cells were seeded in T75 flasks in DMEM, 10% FBS and 1% Penicillin/Streptomycin (all from Gibco). The cells were allowed to attach overnight. The following day the medium was removed and fresh medium containing 0.04 mM of either γT (γ-tocotrienol) or DCE-γT (diluted in absolute ethanol; final concentration of ethanol in the medium was 0.1% v/v). For control untreated cells, equal amount of fresh medium (containing ethanol at 0.1% v/v final concentration) was added.\nSW620 cells were harvested after 24, 36 and 48 hrs of incubation with γT or DCE-γT. Briefly, the medium was removed and the cells were rinsed three times with PBS (without Ca, Mg) (Gibco). Fresh PBS was added and the cells were scraped off the flasks and collected in tubes. Collected cells were centrifuged at 1000 rpm (165 g) for 3 min and the supernatant was removed. The cell pellet was re-suspended in PBS and the centrifugation step was repeated. The supernatant was removed and the cells in minimal residual PBS were snap-freezed in liquid nitrogen. Once frozen the cells were stored in −80° C. until the proteomics analysis.\nIn terms of data analysis, a threshold of relative protein abundance equal or greater than 1.5-fold increase or decrease was set."}, "[4]": {"tested_on": "EGFR-Luc and Grb2-GFP interaction", "assay": "BRET of the interaction between EGFR-Luc and Grb2-GFP", "format": "cell-based"}, "[5]": {"assay": "In vivo biodistribution by quantitative fluorescence imaging", "design": "species or system mouse", "method": "A study of the in vivo biodistribution of a dicarboxylic ester of γ-Tocotrienol (DCE-γT) (enabled by customized histopathologic processing and quantitative fluorescence imaging) was performed. The study disclosed liver uptake as a function of time defining fluorescent chromanol esters as valued molecular probes. The structure of the dicarboxylic ester of γ-Tocotrienol (DCE-γT) is as follows:\nFluorescent signals of the DCE-γT and its free fluorescent metabolite, corresponding to the fluorescent ligand, peaked at 30 min and 3 hrs respectively, which was in agreement with in vitro findings. Colon uptake as a function of time confirms the mitochondrial predilection of the esterified chromanols and claims a new generation of optically active mitocans."}, "[6]": {"target": "T1, EGFR membrane tyrosine kinase receptor (Homo sapiens, UniProt P00533)", "T1 construct": "expressed in transfected cells", "assay": "FRET between EGFR-Luc and fluorescent ester in transfected cells", "format": "cell-based", "details": "EGFR negative colon cancer cells transfected with EGFR-Luc plasmid; FIG. 5", "method": "The fluorescent esters of the natural products disclosed herein can also be used as molecular probes for deciphering the interaction between the natural product and potential biomarkers in cancer cells. EGFR negative colon cancer cells were transiently transfected with a rationally designed EGFR-Luc plasmid and incubated with the DCE-γ-Tocotrienol ester. Bioluminescence of the Luciferase (donor) was assessed against the fluorescence signal of either the DCE-γ-Tocotrienol ester or the hydrolysis product (acceptor)."}}, "data": [{"compound": "C=CC(=O)Nc1cc2c(Nc3ccc(Br)cc3)ncnc2cc1NC(=O)CCl", "note": "[A1F]", "values": [{"measurement": "effect on cell viability with respect to the control (no drug)", "setting": "[1]", "value": "reduce the viability of the cells"}, {"measurement": "cell viability with respect to the control", "setting": "[1]", "value": 20, "unit": "%"}]}, {"compound": "C=CC(=O)Nc1cc2c(Nc3ccc(C(C)C)cc3)ncnc2cc1NC(=O)CCl", "note": "[B1F]", "values": [{"measurement": "effect on cell viability with respect to the control (no drug)", "setting": "[1]", "value": "reduce the viability of the cells"}]}, {"compound": "C=CC(=O)Nc1cc2c(NCc3cccc4ccccc34)ncnc2cc1NC(=O)CCl", "note": "[C1F]", "values": [{"measurement": "effect on cell viability with respect to the control (no drug)", "setting": "[1]", "value": "reduce the viability of the cells"}, {"measurement": "cell viability with respect to the control", "setting": "[1]", "value": 20, "unit": "%"}]}, {"compound": "C=CC(=O)Nc1cc2c(Nc3ccc(C(C)(C)C)cc3)ncnc2cc1NC(=O)CCl", "note": "[D1F]", "values": [{"measurement": "effect on cell viability with respect to the control (no drug)", "setting": "[1]", "value": "reduce the viability of the cells"}, {"measurement": "cell viability with respect to the control", "setting": "[1]", "value": 20, "unit": "%"}]}, {"compound": "CC1(C)C(/C=C/C=C/C=C/C=C2\\N(CCCCS(=O)(=O)[O-])c3ccc4ccccc4c3C2(C)C)=[N+](CCCCS(=O)(=O)[O-])c2ccc3ccccc3c21.[Na+]", "note": "[free cyanine dye, indocyanine green, reference compound]", "values": [{"measurement": "antiproliferative efficacy", "setting": "[2]", "value": "did not exhibit any antiproliferative effects"}]}, {"compound": "CCN1\\C(=C/C=C/C=C/C=C/C2=[N+](CCCCCC(=O)NCC(=O)Nc3cccc(Nc4ncnc5ccc(NC(=O)COC)cc45)c3)c3ccc4ccccc4c3C2(C)C)C(C)(C)c2c1ccc1ccccc21.[Br-]", "note": "[theranostic system]", "values": [{"measurement": "antiproliferative efficacy", "setting": "[2]", "value": "significantly higher antiproliferative efficacy than free anilinoquinazoline"}]}, {"compound": "CC(C)=CCC/C(C)=C/CC/C(C)=C/CC[C@]1(C)CCc2cc(O)c(C)c(C)c2O1", "note": "[γT, γ-tocotrienol, reference compound]", "values": [{"measurement": "decrease in protein level of histone H2B types", "setting": "[3]; versus untreated control", "value": 1.8, "unit": "fold"}, {"measurement": "decrease in protein level of histone H3 types", "setting": "[3]; versus untreated control", "value": "at least 3.7 fold"}, {"measurement": "decrease in protein level of hnRNPs", "setting": "[3]; versus untreated control", "value": "at least 2 fold"}, {"measurement": "decrease in protein level of snRNPs", "setting": "[3]; versus untreated control", "value": 1.8, "unit": "fold"}, {"measurement": "increase in histone H2A.Z", "setting": "[3]; versus untreated control", "value": 24, "unit": "fold"}, {"measurement": "increase in level of RNA helicases", "setting": "[3]; versus untreated control", "value": "≥ 1.9", "unit": "fold"}, {"measurement": "increase in level of certain snRNP components", "setting": "[3]; versus untreated control", "value": "≥ 3", "unit": "fold"}, {"measurement": "increase in level of transcription regulators/co-factors", "setting": "[3]; versus untreated control", "value": "≥ 2", "unit": "fold"}]}, {"compound": "dicarboxylic ester of γ-Tocotrienol [DCE-γT]", "values": [{"measurement": "number of proteins whose expression was elicited", "setting": "[3]; 24 hrs", "value": 37}, {"measurement": "number of proteins whose expression was elicited", "setting": "[3]; 36 hrs", "value": 30}, {"measurement": "number of proteins whose expression was elicited", "setting": "[3]; 48 hrs", "value": 29}, {"measurement": "decrease in DNA repair factors", "setting": "[3]; versus untreated control", "value": 2, "unit": "fold"}, {"measurement": "decrease in protein level of histone H3 types", "setting": "[3]; versus untreated control", "value": "at least 6 fold"}, {"measurement": "decrease in protein level of snRNPs", "setting": "[3]; versus untreated control", "value": 2, "unit": "fold"}, {"measurement": "increase in histone H2A.Z", "setting": "[3]; versus untreated control", "value": 23, "unit": "fold"}, {"measurement": "increase in histone H3 forms", "setting": "[3]; versus untreated control", "value": "≥ 1.8", "unit": "fold"}, {"measurement": "activation within the EGFR axis", "setting": "[4]", "value": "neither the ester nor the hydrolysis products elicit any unwanted activation"}, {"measurement": "time of peak fluorescent signal", "setting": "[5]; in vivo biodistribution, liver uptake as a function of time", "value": 30, "unit": "min"}, {"measurement": "blood brain barrier passage", "setting": "[5]; uptake by mouse brain parenchyma cells", "value": "able to pass the blood brain barrier"}, {"measurement": "FRET signal", "setting": "[6]", "value": "amplified FRET signal"}]}]}
